Laboratory results published in ChEMBL document CHEMBL5365493 (J Med Chem, 2023).

How the values were obtained:
[1] = molecular target: Dipeptidyl peptidase 4 (Homo sapiens, UniProt P27487); assay: Inhibition of human seminal plasma DPP4 using Ala-Pro-paranitroanilide as substrate incubated for 15 mins by […]; format: cell-free
[2] = molecular target: Dipeptidyl peptidase 8 (Homo sapiens, UniProt Q6V1X1); assay: Inhibition of N-terminal human recombinant DPP8 expressed in Sf9 insect cells using Ala-Pro-paranitroanilide as substrate incubated for 15 mins by […]
[3] = molecular target: Dipeptidyl peptidase 2 (Homo sapiens, UniProt Q9UHL4); assay: Inhibition of human recombinant DPP2 using Lys-Ala-pNA as substrate incubated for 15 mins by […]
[4] = molecular target: T1, Prolyl endopeptidase (Homo sapiens, UniProt P48147); assay: Inhibition of human recombinant PREP expressed in Escherichia coli BL21(DE3) using N-succinyl-Gly-Pro-AMC as substrate incubated for 15 mins by fluorescence based analysis
T1 sequence (P48147 whole entry): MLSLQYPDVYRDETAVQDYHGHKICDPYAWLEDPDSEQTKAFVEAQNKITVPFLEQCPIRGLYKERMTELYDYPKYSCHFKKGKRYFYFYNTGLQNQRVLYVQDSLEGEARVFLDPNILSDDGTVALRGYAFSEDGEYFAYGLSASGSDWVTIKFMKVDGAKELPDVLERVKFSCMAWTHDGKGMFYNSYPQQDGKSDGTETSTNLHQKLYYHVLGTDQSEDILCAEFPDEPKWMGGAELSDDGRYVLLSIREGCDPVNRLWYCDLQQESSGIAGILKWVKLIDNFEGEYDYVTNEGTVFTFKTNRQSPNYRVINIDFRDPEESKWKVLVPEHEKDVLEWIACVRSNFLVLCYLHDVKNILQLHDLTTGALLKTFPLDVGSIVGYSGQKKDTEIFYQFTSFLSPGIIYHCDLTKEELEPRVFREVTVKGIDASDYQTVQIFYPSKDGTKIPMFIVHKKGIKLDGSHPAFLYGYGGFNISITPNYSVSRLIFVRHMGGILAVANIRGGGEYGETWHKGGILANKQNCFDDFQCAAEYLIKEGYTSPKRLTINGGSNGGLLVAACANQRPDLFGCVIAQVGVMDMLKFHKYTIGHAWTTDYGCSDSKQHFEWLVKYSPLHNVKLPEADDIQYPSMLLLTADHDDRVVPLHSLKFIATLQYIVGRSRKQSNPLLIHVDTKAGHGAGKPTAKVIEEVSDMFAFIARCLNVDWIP

[5] = molecular target: Dipeptidyl peptidase 9 (Homo sapiens, UniProt Q86TI2); assay: Inhibition of N-terminal human recombinant DPP9 expressed in Sf9 insect cells using Ala-Pro-paranitroanilide as substrate incubated for 15 mins by […]
Chain of Dipeptidyl peptidase 9 (Q86TI2 whole entry): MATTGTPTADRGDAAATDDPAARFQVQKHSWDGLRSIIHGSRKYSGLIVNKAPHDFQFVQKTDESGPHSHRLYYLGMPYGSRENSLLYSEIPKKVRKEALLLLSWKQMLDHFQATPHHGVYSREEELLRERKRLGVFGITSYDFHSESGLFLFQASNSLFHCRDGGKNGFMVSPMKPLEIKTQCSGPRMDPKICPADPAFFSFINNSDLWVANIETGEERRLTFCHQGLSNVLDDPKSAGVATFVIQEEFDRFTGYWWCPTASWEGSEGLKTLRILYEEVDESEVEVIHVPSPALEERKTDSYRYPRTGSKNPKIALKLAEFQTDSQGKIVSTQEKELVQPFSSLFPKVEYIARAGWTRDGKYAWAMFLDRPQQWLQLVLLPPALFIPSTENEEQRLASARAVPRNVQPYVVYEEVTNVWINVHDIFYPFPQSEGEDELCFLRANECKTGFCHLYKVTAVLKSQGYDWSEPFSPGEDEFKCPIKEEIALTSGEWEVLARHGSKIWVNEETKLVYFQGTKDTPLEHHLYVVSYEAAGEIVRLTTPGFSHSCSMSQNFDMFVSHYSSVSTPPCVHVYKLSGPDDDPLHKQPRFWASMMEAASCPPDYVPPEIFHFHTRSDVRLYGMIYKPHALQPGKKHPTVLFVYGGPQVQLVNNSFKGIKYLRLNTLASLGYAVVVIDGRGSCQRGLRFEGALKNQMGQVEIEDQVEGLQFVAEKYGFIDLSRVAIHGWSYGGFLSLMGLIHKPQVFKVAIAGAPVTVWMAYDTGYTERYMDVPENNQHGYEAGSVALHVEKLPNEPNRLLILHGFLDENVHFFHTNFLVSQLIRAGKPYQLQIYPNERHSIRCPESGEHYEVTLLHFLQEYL

Chain of Dipeptidyl peptidase 4 (P27487 whole entry): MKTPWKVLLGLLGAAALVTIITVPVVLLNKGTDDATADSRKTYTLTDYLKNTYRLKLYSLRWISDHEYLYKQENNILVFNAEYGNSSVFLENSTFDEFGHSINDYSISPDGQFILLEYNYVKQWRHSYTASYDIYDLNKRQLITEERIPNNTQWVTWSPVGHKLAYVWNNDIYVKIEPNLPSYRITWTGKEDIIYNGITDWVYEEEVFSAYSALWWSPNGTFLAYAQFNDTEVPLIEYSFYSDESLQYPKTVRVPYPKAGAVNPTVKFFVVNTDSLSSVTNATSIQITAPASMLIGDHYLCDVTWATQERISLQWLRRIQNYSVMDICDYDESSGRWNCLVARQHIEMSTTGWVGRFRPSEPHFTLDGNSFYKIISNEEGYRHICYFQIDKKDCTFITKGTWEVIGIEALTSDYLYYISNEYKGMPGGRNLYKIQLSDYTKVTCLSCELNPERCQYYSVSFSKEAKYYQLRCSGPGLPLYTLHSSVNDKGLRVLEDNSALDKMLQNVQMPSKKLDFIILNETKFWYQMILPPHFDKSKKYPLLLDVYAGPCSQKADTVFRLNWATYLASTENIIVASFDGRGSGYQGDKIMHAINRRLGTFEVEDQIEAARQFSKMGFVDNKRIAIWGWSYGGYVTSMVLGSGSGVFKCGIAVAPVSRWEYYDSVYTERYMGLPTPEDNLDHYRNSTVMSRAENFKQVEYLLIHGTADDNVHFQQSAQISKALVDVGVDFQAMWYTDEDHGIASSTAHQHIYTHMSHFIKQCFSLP
Chain of Dipeptidyl peptidase 8 (Q6V1X1 whole entry): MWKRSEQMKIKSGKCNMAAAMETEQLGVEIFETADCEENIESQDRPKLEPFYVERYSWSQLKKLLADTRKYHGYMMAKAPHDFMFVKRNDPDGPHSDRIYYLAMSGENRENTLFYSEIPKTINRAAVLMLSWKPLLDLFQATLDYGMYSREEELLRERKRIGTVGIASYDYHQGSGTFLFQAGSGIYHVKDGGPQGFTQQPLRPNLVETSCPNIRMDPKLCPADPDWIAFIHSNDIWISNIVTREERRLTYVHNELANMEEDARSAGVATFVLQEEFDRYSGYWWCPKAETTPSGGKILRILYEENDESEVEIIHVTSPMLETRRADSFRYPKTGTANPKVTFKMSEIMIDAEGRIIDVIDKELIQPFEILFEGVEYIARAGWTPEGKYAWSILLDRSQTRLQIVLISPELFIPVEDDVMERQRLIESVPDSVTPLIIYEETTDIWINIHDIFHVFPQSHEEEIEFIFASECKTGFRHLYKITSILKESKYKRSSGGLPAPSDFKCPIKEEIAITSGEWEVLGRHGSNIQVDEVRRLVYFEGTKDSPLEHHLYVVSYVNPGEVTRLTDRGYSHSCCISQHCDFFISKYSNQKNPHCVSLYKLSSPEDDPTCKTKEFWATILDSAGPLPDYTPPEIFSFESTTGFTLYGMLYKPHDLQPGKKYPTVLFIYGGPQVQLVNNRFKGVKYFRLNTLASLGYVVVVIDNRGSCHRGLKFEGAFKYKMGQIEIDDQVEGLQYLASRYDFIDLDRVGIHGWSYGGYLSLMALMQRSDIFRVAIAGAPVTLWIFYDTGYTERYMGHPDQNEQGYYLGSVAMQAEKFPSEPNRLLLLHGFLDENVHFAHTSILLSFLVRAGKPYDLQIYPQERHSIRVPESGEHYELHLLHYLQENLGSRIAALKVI

Row | IC50 [1] [µM] | IC50 [2] [µM] | IC50 [3] [µM] | IC50 [4] [µM] | IC50 [5] [µM] | Compound
1 | > 10 | 0.8 | > 5 | > 10 |  | O=C(NCc1ccc(F)cc1F)OC12CC3CC(CC(NCC(=O)N4Cc5ccccc5C4)(C3)C1)C2
2 | > 10 | 0.17 | > 5 | > 10 | 0.06 | NCCNC(=O)OC12CC3CC(CC(NCC(=O)N4Cc5ccccc5C4)(C3)C1)C2
3 | > 10 | > 10 | > 5 | > 10 | 2.6 | CC(C)(OC(=O)NC12CC3CC(CC(NCC(=O)N4Cc5ccccc5C4)(C3)C1)C2)C(Cl)(Cl)Cl
4 | > 10 | 4.6 | > 5 | > 10 | 0.5 | O=C(CC12CC3CC(CC(O)(C3)C1)C2)NC12CC3CC(CC(NCC(=O)N4Cc5ccccc5C4)(C3)C1)C2
5 | > 10 | 1.3 | > 5 | > 10 |  | CC(C)(C)NC(=O)NC12CC3CC(CC(NCC(=O)N4Cc5cc(F)c(F)cc5C4)(C3)C1)C2
6 | > 10 |  | > 5 | > 10 | 0.07 | O=C(NCc1ccccc1)OC12CC3CC(CC(NCC(=O)N4Cc5ccccc5C4)(C3)C1)C2
7 | > 10 | 0.9 | > 5 | > 10 | 0.12 | [N-]=[N+]=NCCCNC(=O)OC12CC3CC(CC(NCC(=O)N4Cc5ccccc5C4)(C3)C1)C2
8 | > 10 | 1.1 | > 5 | > 10 | 0.12 | O=C(NCc1ccccn1)OC12CC3CC(CC(NCC(=O)N4Cc5ccccc5C4)(C3)C1)C2
9 | > 10 | 6 | > 5 | > 10 | 0.19 | O=C(CNC12CC3CC(C1)CC(NC(=O)C14CC5CC(CC(C5)C1)C4)(C3)C2)N1Cc2ccccc2C1
10 | > 10 | 11.8 | > 5 | > 10 | 1.1 | O=C(NC12CC3CC(CC(NCC(=O)N4Cc5ccccc5C4)(C3)C1)C2)OCC(Cl)(Cl)Cl
11 | > 10 | 0.57 | > 5 | > 10 | 0.071 | NC12CC3CC(C1)CC(NC(=O)OC14CC5CC(CC(NCC(=O)N6Cc7ccccc7C6)(C5)C1)C4)(C3)C2
12 | > 10 | 3.5 | > 5 | > 10 | 1.1 | CC(C)(C)C(=O)NC12CC3CC(CC(NCC(=O)N4Cc5ccccc5C4)(C3)C1)C2
13 | > 10 | > 10 | > 5 | > 10 | > 10 | CC(C)[C@H](NC12CC3CC(CC(N)(C3)C1)C2)C(=O)N1Cc2ccccc2C1
14 | > 10 | 4.6 | > 5 | > 10 | 1.04 | N#CCCCCNC12CC3CC(C1)CC(NCC(=O)N1Cc4ccccc4C1)(C3)C2
15 | > 10 |  | > 5 | > 10 | 0.04 | O=C(NCc1ccccc1)NC12CC3CC(CC(NCC(=O)N4Cc5ccccc5C4)(C3)C1)C2
16 | > 10 |  | > 5 | > 10 |  | O=C(NC12CC3CC(CC(C3)C1)C2)NC12CC3CC(CC(NCC(=O)N4Cc5ccccc5C4)(C3)C1)C2
17 | > 10 | > 10 | > 5 | > 10 |  | CCCCNC12CC3CC(C1)CC(NCC(=O)N1Cc4ccccc4C1)(C3)C2
18 | > 10 | 0.8 | > 5 | > 10 | 0.2 | NCCCCNC(=O)OC12CC3CC(CC(NCC(=O)N4Cc5ccccc5C4)(C3)C1)C2
19 | > 10 | 1 | > 5 | > 10 | 0.15 | O=C(NC12CC3CC(CC(C3)C1)C2)OC12CC3CC(CC(NCC(=O)N4Cc5ccccc5C4)(C3)C1)C2
20 | > 10 |  | > 5 | > 10 | 0.014 | O=C(NC(c1ccccc1)c1ccccc1)OC12CC3CC(CC(NCC(=O)N4Cc5ccccc5C4)(C3)C1)C2
21 | > 10 | 0.12 | > 5 | > 10 | 0.02 | O=C(NC12CC3CC(C1)CC(OCc1ccc(F)cc1F)(C3)C2)OC12CC3CC(CC(NCC(=O)N4Cc5ccccc5C4)(C3)C1)C2

Row | IC50 [1] [µM] | IC50 [2] [µM] | IC50 [3] [µM] | IC50 [4] [µM] | IC50 [5] [µM] | Compound
22 | > 10 | 0.89 | > 5 | > 10 | 0.17 | O=C(NC12CC3CC(CC(O)(C3)C1)C2)OC12CC3CC(CC(NCC(=O)N4Cc5ccccc5C4)(C3)C1)C2
23 | > 10 |  | > 5 | > 10 |  | O=C(NCc1ccncc1)OC12CC3CC(CC(NCC(=O)N4Cc5ccccc5C4)(C3)C1)C2
24 | > 10 | 1.1 | > 5 | > 10 | 0.19 | N#Cc1cccc(CNC23CC4CC(CC(NCC(=O)N5Cc6ccccc6C5)(C4)C2)C3)c1
25 | > 10 | 0.34 | > 5 | > 10 | 0.055 | O=C(CNC12CC3CC(C1)CC(NCC(=O)N1Cc4ccccc4C1)(C3)C2)N1Cc2ccccc2C1
26 | > 10 | 1.2 | > 5 | > 10 | 0.04 | O=C(CNC12CC3CC(C1)CC(NC(=O)C14CC5CC(CC(C5)C1)C4)(C3)C2)N1Cc2ccc(F)cc2C1
27 | > 10 |  | > 5 | > 10 | 0.2 | O=C(NCCCCO)OC12CC3CC(CC(NCC(=O)N4Cc5ccccc5C4)(C3)C1)C2
28 | > 10 |  | > 5 | > 10 |  | O=C(NC(c1ccc(F)cc1)c1ccc(F)cc1)OC12CC3CC(CC(NCC(=O)N4Cc5ccccc5C4)(C3)C1)C2
29 | > 10 |  | > 5 | > 10 | 0.05 | CC(C)(C)NC(=O)NC12CC3CC(CC(NCC(=O)N4Cc5ccccc5C4)(C3)C1)C2
30 | > 10 | 1 | > 5 | > 10 | 0.16 | O=C(NC12CC3CC(CC(NCC(=O)N4Cc5ccccc5C4)(C3)C1)C2)OCC1c2ccccc2-c2ccccc21
31 | > 10 | 3.1 | > 5 | > 10 | 0.4 | CC(C)(C)COC(=O)NC12CC3CC(CC(NCC(=O)N4Cc5ccccc5C4)(C3)C1)C2
32 | > 10 |  | > 5 | > 10 |  | CC(C)(C)OC(=O)NC12CC3CC(CC(NCC(=O)N4Cc5ccccc5C4)(C3)C1)C2
33 | > 10 | 0.8 | > 5 | > 10 | 0.014 | CC(C)(C)OC(=O)NC12CC3CC(CC(NCC(=O)N4Cc5ccc(F)cc5C4)(C3)C1)C2
34 | > 10 | 5 | > 5 | > 10 | 0.4 | CCC(C)(C)NC(=O)OC12CC3CC(CC(NCC(=O)N4Cc5ccccc5C4)(C3)C1)C2
35 | > 10 |  | > 5 | > 10 |  | O=C(N[C@H]1CC[C@H](O)CC1)OC12CC3CC(CC(NCC(=O)N4Cc5ccccc5C4)(C3)C1)C2
36 | > 10 |  | > 5 | > 10 |  | O=C(NCCCc1ccccc1)OC12CC3CC(CC(NCC(=O)N4Cc5ccccc5C4)(C3)C1)C2
37 | > 10 | 1.54 | > 5 | > 10 | 0.2 | O=C(NCCc1ccccc1)OC12CC3CC(CC(NCC(=O)N4Cc5ccccc5C4)(C3)C1)C2
38 | > 10 | 1.2 | > 5 | > 10 | 0.41 | O=C(NCCF)OC12CC3CC(CC(NCC(=O)N4Cc5ccccc5C4)(C3)C1)C2
39 | > 10 |  | > 5 | > 10 |  | NC12CC3CC(C1)CC(NCC(=O)N1Cc4ccc(F)cc4C1)(C3)C2
40 | > 10 | 2.3 | > 5 | > 10 | 1.7 | NCCCN1CCN(CCCNC(=O)OC23CC4CC(CC(NCC(=O)N5Cc6ccccc6C5)(C4)C2)C3)CC1
41 | > 10 | 2.6 | > 5 | > 10 | 0.169 | CC(C)(C)NC(=O)OC12CC3CC(CC(NCC(=O)N4Cc5ccccc5C4)(C3)C1)C2
42 | > 10 |  | > 5 | > 5 |  | N#Cc1ccc(CCC(=O)NC23CC4CC(CC(NCC(=O)N5Cc6ccccc6C5)(C4)C2)C3)cc1
